The values that follow come from publication PMC9048745, “Physicochemical investigation of a novel curcumin diethyl γ-aminobutyrate, a carbamate ester prodrug of curcumin with enhanced anti-neuroinflammatory activity” (PLoS ONE, 2022).

Data set [1] in a line: Identification of incomplete hydrolytic products of CUR-2GE (UPLC-MS/MS). In kind it is physicochemical. The settings on record: buffer pH 1.2, 37°C, 24 h; ND = not detected. The protocol: The incomplete hydrolytic products of CUR-2GE were identified in buffers (pH 1.2, 4.5, 6.8 and 7.4) and human plasma. For hydrolysis in the buffer solutions, the stock solution of CUR-2GE at 200 μg/mL was diluted with a pre-incubated buffer in a vial at 37°C to obtain a final concentration at 10 μg/mL. Samples in buffers pH 1.2 and 4.5 were subsequently incubated at 37°C for 24 h while those in buffers pH 6.8 and 7.4 were incubated at 37°C for 7 min. For hydrolysis in human plasma, the stock solution of CUR-2GE at 100 μg/mL in the diluent was prepared and diluted with pre-incubated human plasma at 37°C for 5 min to obtain a final concentration of 5 μg/mL. The sample was incubated at 37°C for 1 h and an aliquot of 300 μL was added with 300 μL of acetonitrile to stop the reaction. The reaction mixture was then centrifuged at 4°C at 14,000 rpm for 30 min. The supernatant was analyzed using UPLC-MS/MS described below. CUR-2GE, CUR-1GE and curcumin standards were prepared at 10 μg/mL in diluent (2% acetic acid in water: acetonitrile (80: 20, v/v)) and were subjected to UPLC-MS/MS analysis. The retention times and MS/MS spectra of CUR-2GE and its hydrolytic products in buffers and human plasma were compared with those of the standards. The UPLC-MS/MS approach was modified from previous studies. […]

The subject of data set [2] is BV-2 microglial cells. Nature of the data set: Cytotoxicity (MTT assay). In kind it is cell-based, murine. The settings on record: BV-2 cells, 24 h. The protocol: BV-2 microglial cells were cultured in DMEM supplemented with 10% fetal bovine serum, 2 mM L-glutamine, 1% penicillin/streptomycin (100 units/mL penicillin and 100 μg/mL streptomycin) at 37°C in 5% CO2. BV-2 microglial cells were plated in a 24-well plate at a density of 2 × 10^5 cells/well for 24 h. Various concentrations at 0, 1.25, 2.5, 5, 10, or 20 μM of curcumin or CUR-2GE were determined for a non-toxic concentration. After 24 h, cell viability was assessed by an MTT assay. The media was removed and replaced with an MTT solution in PBS (0.5 mg/mL). After 3-h incubation, the MTT solution was discarded, and formazan crystals formed after the reaction was dissolved in DMSO. The absorbance was then read at 540 nm using a microplate reader (CLARIOstar®, BMG Labtech, Ortenberg, Germany). The percentage of cell viability was expressed relative to the control cells. In addition, the cell viability of BV-2 microglial cells treated with LPS and a combination of LPS and the test compounds was also determined.

On the set-up of data set [3]: method as in PMID 9278892. The settings on record: cited from earlier work.
On the set-up of data set [4]: method as in PMID 29678124, PMID 25923809, PMID 27758710. The settings on record: practically insoluble = <0.1 mg/mL; cited from earlier work.

Consider curcumin, for which the “detection by UPLC-MS/MS after incubation of CUR-2GE” value in data set [1] was “not detected”. For the same substance, in data set [2], the “non-toxic concentrations (no cytotoxicity)” value is not above 10 µM. Further, the “half-life in human plasma, previously reported” value in data set [3] was 8 h. Further, the USP solubility classification result in data set [4] was “practically insoluble”.
